Data reported in the supplement of paper PMC10307832.

How the values were obtained:
Assay in all cases: relative viability (nuclei count vs DMSO), 5 days (fraction); higher = more cells survive
Kobe2602 + Navitoclax = compound: C1=CC(=CC=C1NC(=S)NNC2=C(C=C(C=C2[N+](=O)[O-])C(F)(F)F)[N+](=O)[O-])F [Kobe2602] + CC1(C)CCC(c2ccc(Cl)cc2)=C(CN2CCN(c3ccc(C(=O)NS(=O)(=O)c4ccc(N[C@H](CCN5CCOCC5)CSc5ccccc5)c(S(=O)(=O)C(F)(F)F)c4)cc3)CC2)C1 [Navitoclax] (partner 0.5 µM)
Outline: (§1)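 Relative viability equals treated-well nuclei counts divided by vehicle-well nuclei counts. Counts came from 4× images of lung cancer cell lines grown in 1536-well plates for 5 days after pin-tool dosing on the day after seeding. Dosing used one drug alone or a fixed anchor-drug dose plus five library-drug doses (not always all listed) in √10 steps, and values are medians of duplicate plates.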

Zosuquidar + Linsitinib = compound: O[C@@H](COc1cccc2ncccc12)CN1CCN([C@@H]2c3ccccc3[C@@H]3[C@H](c4ccccc42)C3(F)F)CC1 [Zosuquidar] + C[C@]1(O)C[C@@H](c2nc(-c3ccc4ccc(-c5ccccc5)nc4c3)c3c(N)nccn32)C1 [Linsitinib] (partner 1 µM)
Outline: as §1

Zosuquidar + Trametinib = compound: O[C@@H](COc1cccc2ncccc12)CN1CCN([C@@H]2c3ccccc3[C@@H]3[C@H](c4ccccc42)C3(F)F)CC1 [Zosuquidar] + CC(=O)Nc1cccc(-n2c(=O)n(C3CC3)c(=O)c3c(Nc4ccc(I)cc4F)n(C)c(=O)c(C)c32)c1 [Trametinib] (partner 0.02 µM)
Outline: as §1

Cabozantinib + OSI-027 = compound: COc1cc2nccc(Oc3ccc(NC(=O)C4(C(=O)Nc5ccc(F)cc5)CC4)cc3)c2cc1OC [Cabozantinib] + COc1cccc2cc(-c3nc([C@H]4CC[C@H](C(=O)O)CC4)n4ncnc(N)c34)[nH]c12 [OSI-027] (partner 0.5 µM)
Outline: as §1

Cell Line	relative viability (Kobe2602 + Navitoclax; first compound 0.2 µM)	relative viability (Kobe2602 + Navitoclax; first compound 0.6325 µM)	relative viability (Kobe2602 + Navitoclax; first compound 2 µM)	relative viability (Kobe2602 + Navitoclax; first compound 6.325 µM)	relative viability (Kobe2602 + Navitoclax; first compound 20 µM)	relative viability (Zosuquidar + Linsitinib; first compound 0.01 µM)	relative viability (Zosuquidar + Linsitinib; first compound 0.03162 µM)	relative viability (Zosuquidar + Linsitinib; first compound 0.1 µM)	relative viability (Zosuquidar + Linsitinib; first compound 0.3162 µM)	relative viability (Zosuquidar + Linsitinib; first compound 1 µM)	relative viability (Zosuquidar + Trametinib; first compound 0.01 µM)	relative viability (Zosuquidar + Trametinib; first compound 0.03162 µM)	relative viability (Zosuquidar + Trametinib; first compound 0.1 µM)	relative viability (Zosuquidar + Trametinib; first compound 0.3162 µM)	relative viability (Zosuquidar + Trametinib; first compound 1 µM)	relative viability (Cabozantinib + OSI-027; first compound 0.02 µM)	relative viability (Cabozantinib + OSI-027; first compound 0.06325 µM)	relative viability (Cabozantinib + OSI-027; first compound 0.2 µM)	relative viability (Cabozantinib + OSI-027; first compound 0.6325 µM)	relative viability (Cabozantinib + OSI-027; first compound 2 µM)
NCI-H2009	1.19	1.25	1.14	1.19	1.14	1.22	1.25	1.15	1.16	1.2	0.273	0.208	0.239	0.285	0.263	0.642	0.724	0.695	0.674	0.496
RERF-LC-KJ	0.804	0.993	0.856	0.971	0.858	0.858	0.903	0.876	0.932	0.906	0.837	0.897	0.944	0.857	0.919	0.498	0.623	0.547	0.602	0.645
NCI-H2085	1.2	1.16	1.08	1.23	1.14	0.867	0.982	0.919	0.901	0.995	0.513	0.481		0.617	0.548	0.817	0.756	0.661	0.66	0.642
NCI-H1792	0.67	0.626	0.604	0.609	0.695	0.545	0.438	0.431	0.572	0.579	0.522	0.427	0.41	0.535	0.421		0.75	0.697	0.664	0.531
NCI-H2405	0.82	0.847	0.783	1.06	0.987	0.984	0.878	0.784	0.969	0.983	0.64	0.621	0.617	0.754	0.617	0.338	0.699	0.735	0.651	0.682
201T	1.23	1.18	1.18	1.3	1.29	1.06	1.01	0.892	0.961	1.01	0.731	0.742	0.684	0.691	0.719	0.453	0.877	0.772	0.877	0.774
NCI-H1755	0.999	0.995	0.969	0.96	0.926	0.948	0.977	0.958	1.01	0.965	0.762	0.75	0.755	0.819	0.75	0.627	0.729	0.775	0.585	0.575
NCI-H1651	1.11	1.08	1.18	1.03	1.02	0.937	1.01	0.895	0.939	0.953	0.773	0.803	0.772	0.864	0.789	0.725	0.69	0.612	0.796	0.581
NCI-H1437	1.04	1.07	1.11	1.11	0.901	1.06	1.01	0.936	1.08	1.05	0.508	0.587	0.507	0.762	0.533	0.896	0.963	0.882	0.921	0.922
NCI-H1975	1.08	0.955	0.968	1.1	0.928	0.928	0.905	1.07	1.01	1.02	0.431	0.351	0.299	0.528	0.337	0.676	0.763	0.668	0.679	0.543
BEN	0.0992	0.0652	0.0611	0.0659	0.0705	1.05	0.896	0.766	0.859	0.936	1.21	1.16	0.885	0.999	0.927	0.314	0.311	0.28	0.299	0.24
NCI-H460	1.12	1.16	1.19	1.1	1.06	0.764	0.802	0.711	0.759	0.768	0.13	0.142	0.157	0.239	0.0685	0.761	0.927	0.664	0.624	0.584
NCI-H1944	1.02	1.04	1.09	1.08	1.13	1.21	1.17	1.08	1.09	1.17	0.418	0.393	0.389	0.429	0.388	0.282	0.425	0.389	0.444	0.402
HOP-62	1.01	1.03	0.986	1	1.04	0.834	1.12	1.13	0.886	0.991	0.384	0.404	0.393	0.396	0.37	0.825	0.915	0.781	0.829	0.781
HCC-366	1.07	0.98	0.832	1.06	1.06	0.641	0.682	0.641	0.597	0.783	0.324	0.35	0.367	0.46	0.259	0.753	1.03	0.951	0.795	0.778
NCI-H3122	1.05	0.971	1.02	1.02	1.03	1.01	0.939	0.938	1.07	0.959	0.232	0.258	0.238	0.222	0.211	0.97	0.963	1.07	1.06	1.4

Cell Line	relative viability (Kobe2602 + Navitoclax; first compound 0.2 µM)	relative viability (Kobe2602 + Navitoclax; first compound 0.6325 µM)	relative viability (Kobe2602 + Navitoclax; first compound 2 µM)	relative viability (Kobe2602 + Navitoclax; first compound 6.325 µM)	relative viability (Kobe2602 + Navitoclax; first compound 20 µM)	relative viability (Zosuquidar + Linsitinib; first compound 0.01 µM)	relative viability (Zosuquidar + Linsitinib; first compound 0.03162 µM)	relative viability (Zosuquidar + Linsitinib; first compound 0.1 µM)	relative viability (Zosuquidar + Linsitinib; first compound 0.3162 µM)	relative viability (Zosuquidar + Linsitinib; first compound 1 µM)	relative viability (Zosuquidar + Trametinib; first compound 0.01 µM)	relative viability (Zosuquidar + Trametinib; first compound 0.03162 µM)	relative viability (Zosuquidar + Trametinib; first compound 0.1 µM)	relative viability (Zosuquidar + Trametinib; first compound 0.3162 µM)	relative viability (Zosuquidar + Trametinib; first compound 1 µM)	relative viability (Cabozantinib + OSI-027; first compound 0.02 µM)	relative viability (Cabozantinib + OSI-027; first compound 0.06325 µM)	relative viability (Cabozantinib + OSI-027; first compound 0.2 µM)	relative viability (Cabozantinib + OSI-027; first compound 0.6325 µM)	relative viability (Cabozantinib + OSI-027; first compound 2 µM)
NCI-H1355	0.887	0.94	0.945	0.901	0.902	0.864	0.798	0.641	0.87	0.887	0.461	0.416	0.435	0.557	0.401	0.291	0.477	0.412	0.458	0.411
NCI-H1734	0.899	0.924	0.842	0.837	0.926	0.894	0.97	0.816	0.963	0.949	0.591	0.773	0.658	0.734	0.623	0.433	0.611	0.59	0.586	0.573
LXF-289	0.95	0.959	0.873	0.941	0.923	0.888	1	0.94	0.981	1.03	0.614	0.703	0.675	0.727	0.654	0.612	0.856	0.753	0.816	0.78
SK-LU-1	0.818	0.984	0.713	1.01	0.967	1.1	1.3	1.39	1.22	0.874	0.506	0.578	0.488	0.489	0.519	0.3	0.37	0.394	0.298	0.312
NCI-H2087	0.959	0.934	1.01	1.03	0.849	0.916	1.03	1.01	0.987	0.89	0.188	0.192	0.167	0.224	0.196	0.364	0.549	0.637	0.562	0.633
SK-MES-1	1.14	1.23	1.09	1.19	1.23	1.01	1.08	0.991	0.979	1.1	0.616	0.494	0.535	0.563	0.549	0.542	0.718	0.649	0.665	0.512
HCC-78	0.761	0.893		0.78	0.91	0.67	0.556		0.486	0.542	0.799			1	0.759		0.439	0.287	0.291	0.258
NCI-H1793	0.528	0.445	0.415	0.413	0.459	0.748	0.934		0.797	0.73	0.423			0.445	0.434	0.196	0.254	0.198	0.253	0.197
NCI-H2228	1.08	0.621	0.69	0.743	0.841	0.659	0.922	0.552	0.515	0.685	0.438	0.441	0.423	0.57	0.505	0.495	0.871	0.576	0.449	0.508
H3255	0.521	0.562	0.516	0.558	0.548	1.07	0.945	0.783	1.1	0.951	0.58	0.581	0.525	0.638	0.632	0.527	0.662		0.621	0.613
HCC-15	0.715	0.728	0.665	0.664	0.65	0.949	0.794	0.913	0.901	0.901	0.393	0.374	0.345	0.397	0.38	0.477	0.744	0.66	0.657	0.622
PC-14	0.978	1.04	0.982	1.03	0.971	0.918	0.97	0.904	0.94	1.02	0.826	0.753	0.862	0.83	0.706	0.388	0.973	0.0936	1.03	0.865
NCI-H2023	0.976	1.11	0.892	0.927	0.917	0.656	0.815	0.605	0.631	0.776	0.595	0.669	0.574	0.702	0.596	0.308	0.39	0.322	0.327	0.235
HCC-44	0.989	0.998	0.928	0.963	1.02	0.663	0.684	0.65	0.669	0.696	1.01	0.999	0.96	1.09	1.13		0.646	0.556	0.557	0.408
COR-L23	0.951	1.01	1.02	1.06	0.938	0.98	0.959	0.945	1.03	0.902	0.573	0.639	0.507	0.811	0.505	0.88	0.965	0.94	0.895	0.784
